Assay results from US20200113852A1, “METHODS OF PATIENT SELECTION AND TREATING TRXR- OR PRDX-OVEREXPRESSED CANCERS” (TRIACT THERAPEUTICS, INC., priority 2017, published 2020).
Read-outs that look alike come from different tables or passages of the source.

Tests used:
[1] = Phase II clinical trial GBM, toxicity and tolerability
[2] = human, in vivo
Source text: It was a single arm, multi dose, dose escalating trial in newly diagnosed GBM patients. The total number of patients was 43, with about 5 patients per cohort. Patients who tolerated radiation (XRT) and temozolomide (TMZ) were recruited. Inclusion criteria included completion of XRT and TMZ without grade 3 or 4 toxicity and labs within acceptable range within 6 weeks of completing XRT. The end points included safety, maximum tolerated dose (MTD), and signal of activity.
Using modified continual reassessment method, MTD was defined for metronomic and standard dose TMZ.

ΔSec human TrxR1 = target: T1, ΔSec human TrxR1 (Homo sapiens, UniProt Q16881); test: Electron paramagnetic resonance, DEPMPO spin trapping; type: biochemical; conditions: ΔSec-TrxR1, absence of auranofin
T1 construct: purchased Abnova
T1 sequence (Q16881 151-647, stated change not applied): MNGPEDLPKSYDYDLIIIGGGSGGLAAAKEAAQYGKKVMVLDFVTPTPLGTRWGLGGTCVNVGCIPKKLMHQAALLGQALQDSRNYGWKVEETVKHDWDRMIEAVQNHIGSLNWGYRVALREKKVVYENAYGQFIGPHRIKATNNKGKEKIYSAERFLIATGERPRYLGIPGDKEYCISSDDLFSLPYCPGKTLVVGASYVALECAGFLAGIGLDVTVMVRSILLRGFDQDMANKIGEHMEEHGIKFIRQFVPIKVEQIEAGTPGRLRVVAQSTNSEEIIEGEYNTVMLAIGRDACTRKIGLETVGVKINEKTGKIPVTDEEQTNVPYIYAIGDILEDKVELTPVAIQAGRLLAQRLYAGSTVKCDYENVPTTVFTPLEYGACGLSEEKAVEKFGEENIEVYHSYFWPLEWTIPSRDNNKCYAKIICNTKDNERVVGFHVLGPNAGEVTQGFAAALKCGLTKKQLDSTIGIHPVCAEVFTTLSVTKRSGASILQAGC

[3] = tested on: Trx1/2 in MDA-MB-231 cells; test: Trx redox western blot analysis; type: cell-based, human; conditions: GSH-depleted MDA-MB-231, 100 μM, 6h, increases further at 18h
Protocol: Quantification is obtained directly from the relative intensities of the different bands. Two forms of the redox Western blot have been developed, separating on the basis of differing charge (thiols are modified with a charged alkylating reagent) or mass (thiols are modified with a high-mass alkylating reagent). Redox analysis of the mitochondrial compartment is performed using a redox Western blot analysis of thioredoxin-2 (Trx2). Trx2 is exclusively found in mitochondria, so an analysis of a cell or tissue extract provides specific information on redox in the mitochondria without fractionation. Analysis is performed following derivatization with AMS. Trx2 contains two cysteine residues, and the addition of two molecules of AMS increases the mass by approximately 1000 Da. Oxidized and AMS derivatized forms are separated by non-reducing SDS polyacrylamide gel electrophoresis and detected by immunoblotting.

MDA-MB-231 cells = test: Fluorescence microscopy, subcellular localization of iniparib-biotin targets; type: cell-based, human; conditions: MDA-MB-231, as early as 30 min following compound addition
Protocol: MDA-MB-231 cells were platted on polylysine D coated thin glass bottom microscope chambers (Ibidi). […] For subcellular localization experiments mitochondria were stained with 100 nM Mitotracker Red CMX (Molecular probes) added for 10 min. This stain was performed before fixation (Paraformaldehyde 3.7% in PBS pH 7.4). Biotin was developed, after Triton X100 (0.3% in PBS, 15 min) permeabilization and saturation (1% BSA+1% gelatin in PBS: saturation buffer), with Alexa-488 streptavidin (Molecular Probes) conjugate (1 μg/ml in saturation buffer). Nuclei were stained with Hoechst (Molecular Probes) and samples mounted in antifading solution (Ibidi).
Cells were imaged with a PLAN NeoFluar 40× (NA 1.3) or 100×, (NA 1.46) oil objectives on a LSM510 (Zeiss) confocal microscope. Laser lines, filters and dichroic mirrors were selected for maximal separation of the green (Ex./Em. 488/530 nm) and the red fluorescence (Ex./Em. 543/LP 585 nm). Nuclei were observed (Ex./Em. 405/460 nm). For co-localization stacks of images separated by 400 nm along z-axis were acquired. Post-capture processing was done using LSM510 software, stacks of confocal images were deconvoluted using the ImageJ software.

In the case of `NC(=O)c1ccc(I)c([N+](=O)[O-])c1` [Iniparib, 4-iodo-3-nitrobenzamide], the Acute kidney injury ([1]; Grade 3) was 1 (1) N (%), the Anemia ([1]; Grade 3) was 2 (2) N (%) and the Atrial fibrillation ([1]; Grade 3) was 1 (1) N (%). The Bronchial infection ([1]; Grade 3) was 1 (1) N (%), the Cognitive disturbance ([1]; Grade 3) was 1 (1) N (%) and the Confusion ([1]; Grade 3) was 1 (1) N (%). The Dehydration ([1]; Grade 3) was 1 (1) N (%), the Dizziness ([1]; Grade 3) was 1 (1) N (%) and the Dysphasia ([1]; Grade 3) was 1 (1) N (%). The Fatigue ([1]; Grade 3) was 4 (5) N (%), the Generalized muscle weakness ([1]; Grade 3) was 2 (2) N (%) and the Headache ([1]; Grade 3) was 1 (1) N (%). For the same molecule, the Hyperkalemia ([1]; Grade 3) was 1 (1) N (%), the Hypokalemia ([1]; Grade 3) was 1 (1) N (%) and the Hypotension ([1]; Grade 3) was 1 (1) N (%). For the same molecule, the Hypoxia ([1]; Grade 3) was 1 (1) N (%), the Lymphocyte count decreased ([1]; Grade 3) was 4 (5) N (%) and the Nausea ([1]; Grade 3) was 2 (2) N (%). The “Neutrophil Count Decreased” value ([1]; Grade 3) was 3 (4) N (%), the “Platelet Count Decreased” value ([1]; Grade 3) was 4 (5) N (%) and the Rash maculo-papular ([1]; Grade 3) was 3 (4) N (%). For the same molecule, the “Skin and subcutaneous tissue disorders” value ([1]; Grade 3) was 1 (1) N (%), the Vomiting ([1]; Grade 3) was 1 (1) N (%) and the “White Blood Cell Decreased” value ([1]; Grade 3) was 5 (6) N (%). For the same molecule, the Alanine aminotransferase increased ([1]; Grade 4) was 1 (1) N (%), the Aspartate aminotransferase increased ([1]; Grade 4) was 1 (1) N (%) and the Flushing ([1]; Grade 4) was 1 (1) N (%). For the same molecule, the Hypertension ([1]; Grade 4) was 1 (1) N (%), the “Neutrophil Count Decreased” value ([1]; Grade 4) was 5 (6) N (%) and the “Platelet Count Decreased” value ([1]; Grade 4) was 11 (13) N (%). The “White Blood Cell Decreased” value ([1]; Grade 4) was 3 (4) N (%), the Acute kidney injury ([1]; Total) was 1 (1) N (%) and the Alanine aminotransferase increased ([1]; Total) was 1 (1) N (%). For the same molecule, the Anemia ([1]; Total) was 2 (2) N (%), the Aspartate aminotransferase increased ([1]; Total) was 1 (1) N (%) and the Atrial fibrillation ([1]; Total) was 1 (1) N (%). For the same molecule, the Bronchial infection ([1]; Total) was 1 (1) N (%), the Cognitive disturbance ([1]; Total) was 1 (1) N (%) and the Confusion ([1]; Total) was 1 (1) N (%). The Dehydration ([1]; Total) was 1 (1) N (%), the Dizziness ([1]; Total) was 1 (1) N (%) and the Dysphasia ([1]; Total) was 1 (1) N (%). The Fatigue ([1]; Total) was 4 (5) N (%), the Flushing ([1]; Total) was 1 (1) N (%) and the Generalized muscle weakness ([1]; Total) was 2 (2) N (%). The Headache ([1]; Total) was 1 (1) N (%), the Hyperkalemia ([1]; Total) was 1 (1) N (%) and the Hypertension ([1]; Total) was 1 (1) N (%). The Hypokalemia ([1]; Total) was 1 (1) N (%), the Hypotension ([1]; Total) was 1 (1) N (%) and the Hypoxia ([1]; Total) was 1 (1) N (%). For the same molecule, the Lymphocyte count decreased ([1]; Total) was 4 (5) N (%), the Nausea ([1]; Total) was 2 (2) N (%) and the “Neutrophil Count Decreased” value ([1]; Total) was 8 (10) N (%). For the same molecule, the “Platelet Count Decreased” value ([1]; Total) was 15 (18) N (%), the Rash maculo-papular ([1]; Total) was 3 (4) N (%) and the “Skin and subcutaneous tissue disorders” value ([1]; Total) was 1 (1) N (%). For the same molecule, the Vomiting ([1]; Total) was 1 (1) N (%), the “White Blood Cell Decreased” value ([1]; Total) was 8 (10) N (%) and the well tolerated dose ([1]; with adjuvant TMZ) was 17.2 mg/kg weekly. The well tolerated dose ([1]; with radiation and TMZ) was 16 mg/kg weekly, the “DLT: fatigue” value [2] was 1 and the “DLT: hypersensitivity reaction” value [2] was 1. For the same molecule, the “DLT: rash” value [2] was 1, the “DLT: thromboembolic event” value [2] was 1 and the Fatigue [2] was 28 (65) No. (% of pts). For the same molecule, the Nausea [2] was 18 (42) No. (% of pts), the “additional grade 3 toxicities” value [2] was “neutropenia, lymphopenia, nausea, and elevated AST” and the Fatigue ([2]; 3 cycles (10 weeks each)) was 13 (65) No. (% of pts). For the same molecule, the Nausea ([2]; 3 cycles (10 weeks each)) was 9 (45) No. (% of pts), the Fatigue ([2]; 6 cycles (monthly)) was 15 (65) No. (% of pts) and the Nausea ([2]; 6 cycles (monthly)) was 9 (39) No. (% of pts). The “DEPMPO/HOO• adduct signal” value (ΔSec human TrxR1) was “increase”, the “DEPMPO/HO• adduct signal” value (ΔSec human TrxR1) was “modest increase” and the Trx oxidation status [3] was “accumulation of oxidized Trx”.
With `O=C(CCCC[C@@H]1SC[C@@H]2NC(=O)N[C@@H]21)NCCNC(=O)c1ccc(I)c([N+](=O)[O-])c1` [Iniparib-biotin, 4-iodo-3-nitro-N-(2-(5-((3 aS,4S,6aR)-2-oxohexahydro-1H-thieno[3,4-d]imidazol-4-yl)pentanamido)ethyl)benzamide] the “protein modification, subcellular localization” value (MDA-MB-231 cells) was “covalently modified cytosolic and mitochondrial proteins were detected”.
